In PubChem BioAssay (NCI):
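The concentration for 50% growth inhibition is given as GI50. At the TGI there is no net growth.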

Key:
Test in all cases: NCI anticancer screen, dose series, 384-well format
[1] = tested on: OVCAR-3 ovarian
[2] = tested on: SN12C renal
[3] = tested on: K-562 leukemia
[4] = tested on: MDA-MB-231 breast
[5] = tested on: HS 578T breast
[6] = tested on: HCC-2998 colon
[7] = tested on: SK-MEL-2 melanoma
[8] = tested on: M14 melanoma
[9] = tested on: COLO 205 colon
[10] = tested on: MOLT-4 leukemia
[11] = tested on: TK-10 renal
[12] = tested on: HCT-116 colon
[13] = tested on: ACHN renal

CC(C)(O)CNc1nc(Nc2ccnc(C(F)(F)F)c2)nc(-c2cccc(C(F)(F)F)n2)n1
GI50 [1]: 17.6 µM | TGI [1]: 32.9 µM | GI50 [2]: 19.8 µM | TGI [2]: 40.8 µM | GI50 [3]: 14.7 µM | TGI [3]: 28.7 µM | GI50 [4]: 18.7 µM | TGI [4]: 34.5 µM | GI50 [5]: 14.6 µM | TGI [5]: 29.5 µM | GI50 [6]: 16.3 µM | TGI [6]: 30.4 µM | GI50 [7]: 0.265 µM | TGI [7]: 1.17 µM | GI50 [8]: 19.8 µM | TGI [8]: 35.2 µM | GI50 [9]: 18.5 µM | TGI [9]: 34.8 µM | GI50 [10]: 13.7 µM | TGI [10]: 26.8 µM | GI50 [11]: 19.8 µM | TGI [11]: 43.4 µM | GI50 [12]: 17.3 µM | TGI [12]: 33.2 µM | GI50 [13]: 20.9 µM | TGI [13]: 40.5 µM
